Laboratory results from ChEMBL document CHEMBL6153079, “Discovery of noncovalent diaminopyrimidine-based Inhibitors for glioblastoma via a dual FAK/DNA targeting strategy” (Eur J Med Chem, 2025).
The source made the active and inactive calls. The calls are words filed in the database; no cut-off is given here.

How the values were obtained:
[1] = test system: U-87 MG; experiment: Induction of apoptosis in human U-87 MG cells assessed as viable cells at 0.01 uM measured upto 24 hrs by Annexin V-FITC/PI staining based flow cytometry analysis (reference value: 98.4%); type: functional, U-87MG ATCC; conditions: read-out: Activity
[2] = test system: U-87 MG; experiment: Antiproliferative activity against human U-87 MG assessed as cell viability incubated for 48 hrs by MTT assay; type: functional, cell-based, U-87MG ATCC
[3] = Toxicity in BALB/c mouse implanted with human U-87 MG cells assessed as liver damage at 5 mg/kg, ip administered once daily for 15 days by H and E staining based analysis; type: organism-based; conditions: in vivo, 360 h, time 15 day
[4] = target: T1, Focal adhesion kinase 1 (Homo sapiens, UniProt Q05397); experiment: Inhibition of FAK (unknown origin) preincubated for 10 mins followed by ATP and substrate addition and measured after 50 mins by HTRF analysis
Target sequence in this assay (Q05397 whole entry): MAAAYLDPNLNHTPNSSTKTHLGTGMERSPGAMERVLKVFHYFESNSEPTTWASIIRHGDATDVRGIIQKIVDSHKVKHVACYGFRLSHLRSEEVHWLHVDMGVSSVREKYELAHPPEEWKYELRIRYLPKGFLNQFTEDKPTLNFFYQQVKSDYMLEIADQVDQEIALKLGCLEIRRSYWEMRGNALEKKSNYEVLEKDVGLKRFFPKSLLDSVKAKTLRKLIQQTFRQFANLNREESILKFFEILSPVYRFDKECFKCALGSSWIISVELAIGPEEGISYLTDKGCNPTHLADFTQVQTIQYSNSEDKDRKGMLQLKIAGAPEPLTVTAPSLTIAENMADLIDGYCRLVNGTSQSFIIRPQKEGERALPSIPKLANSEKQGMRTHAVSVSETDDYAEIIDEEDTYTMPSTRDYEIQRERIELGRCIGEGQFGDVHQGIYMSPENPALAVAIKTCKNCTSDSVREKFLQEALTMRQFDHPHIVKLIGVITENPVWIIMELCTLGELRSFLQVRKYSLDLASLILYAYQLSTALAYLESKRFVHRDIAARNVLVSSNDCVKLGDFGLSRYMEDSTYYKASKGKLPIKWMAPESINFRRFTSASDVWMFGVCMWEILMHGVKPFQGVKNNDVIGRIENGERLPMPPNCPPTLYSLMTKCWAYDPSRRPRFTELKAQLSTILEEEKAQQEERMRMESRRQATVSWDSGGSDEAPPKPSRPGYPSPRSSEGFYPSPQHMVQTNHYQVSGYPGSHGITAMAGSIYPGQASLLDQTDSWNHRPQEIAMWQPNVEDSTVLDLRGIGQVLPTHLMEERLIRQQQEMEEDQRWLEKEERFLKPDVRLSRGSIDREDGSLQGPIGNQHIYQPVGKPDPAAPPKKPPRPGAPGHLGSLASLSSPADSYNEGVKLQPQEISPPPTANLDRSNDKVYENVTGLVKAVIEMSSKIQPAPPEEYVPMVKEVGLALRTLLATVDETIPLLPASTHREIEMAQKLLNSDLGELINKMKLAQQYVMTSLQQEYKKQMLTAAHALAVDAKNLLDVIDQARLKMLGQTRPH

[5] = test system: U-251; experiment: Antiproliferative activity against human U-251 assessed as cell viability incubated for 48 hrs by MTT assay; type: functional, cell-based; conditions: U-251, 48 h
[6] = Distribution coefficient, logD of compound in n-Octanol/water at pH 7.4; type: physicochemical
[7] = target: T1, Focal adhesion kinase 1; experiment: Inhibition of FAK phosphorylation in human U-87 MG cells at 0.8 uM incubated for 24 hrs by Western blot analysis; type: cell-based
Target sequence in this assay (Q05397 2-1052 limits assumed): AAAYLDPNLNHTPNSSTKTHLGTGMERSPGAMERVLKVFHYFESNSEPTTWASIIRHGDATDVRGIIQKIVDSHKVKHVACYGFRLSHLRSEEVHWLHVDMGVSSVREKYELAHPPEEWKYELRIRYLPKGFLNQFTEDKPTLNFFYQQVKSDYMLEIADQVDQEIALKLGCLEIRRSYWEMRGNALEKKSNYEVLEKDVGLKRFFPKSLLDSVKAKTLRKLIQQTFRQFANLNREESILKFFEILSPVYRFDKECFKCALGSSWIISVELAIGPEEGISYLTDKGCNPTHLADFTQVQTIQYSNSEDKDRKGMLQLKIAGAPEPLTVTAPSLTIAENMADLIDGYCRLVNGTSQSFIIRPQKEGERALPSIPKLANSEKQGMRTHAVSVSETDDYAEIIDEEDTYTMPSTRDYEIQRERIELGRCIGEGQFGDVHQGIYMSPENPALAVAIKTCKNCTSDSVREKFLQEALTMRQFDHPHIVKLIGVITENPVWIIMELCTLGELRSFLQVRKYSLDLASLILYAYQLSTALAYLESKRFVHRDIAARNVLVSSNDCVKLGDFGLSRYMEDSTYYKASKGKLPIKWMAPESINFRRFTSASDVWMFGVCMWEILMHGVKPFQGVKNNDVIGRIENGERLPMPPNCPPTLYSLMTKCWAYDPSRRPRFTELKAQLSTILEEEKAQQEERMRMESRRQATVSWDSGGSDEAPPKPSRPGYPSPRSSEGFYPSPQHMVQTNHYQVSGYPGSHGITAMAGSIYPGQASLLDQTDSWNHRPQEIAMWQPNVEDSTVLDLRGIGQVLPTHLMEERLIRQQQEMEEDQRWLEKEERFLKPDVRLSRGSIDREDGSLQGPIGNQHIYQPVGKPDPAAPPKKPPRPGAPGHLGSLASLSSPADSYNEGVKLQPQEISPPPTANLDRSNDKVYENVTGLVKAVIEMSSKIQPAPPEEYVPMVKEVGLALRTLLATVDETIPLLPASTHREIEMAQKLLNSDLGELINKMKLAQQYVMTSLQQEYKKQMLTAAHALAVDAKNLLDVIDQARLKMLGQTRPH

[8] = test system: U-87 MG; experiment: Induction of cell cycle arrest in human U-87 MG cells assessed as accumulation of cells at […] at 0.02 uM by propidium Iodide staining based flow cytometry analysis (reference value: 1.67%); type: functional, U-87MG ATCC
[9] = Selectivity ratio of IC50 for cytotoxicity against human LO2 assessed as cell viability to IC50 for antiproliferative activity against human U-251 assessed as cell viability; type: toxicity; conditions: LO2 cells versus U-251 cells, read-out: Ratio IC50
[10] = test system: U-87 MG; experiment: Induction of apoptosis in human U-87 MG cells assessed as viable cells at 2 uM measured upto 24 hrs by Annexin V-FITC/PI staining based flow cytometry analysis (reference value: 98.4%); type: functional, U-87MG ATCC; conditions: read-out: Activity
[11] = test system: U-87 MG; experiment: Induction of cell cycle arrest in human U-87 MG cells assessed as accumulation of cells at […] at 0.2 uM by propidium Iodide staining based flow cytometry analysis (reference value: 1.67%); type: functional, U-87MG ATCC
[12] = test system: U-87 MG; experiment: Induction of DNA damage in human U-87 MG cells incubated for 2.5 to 3 hrs by comet assay; type: functional, cell-based; conditions: U-87MG ATCC, dose 0.1-2 µM, time 2.5-3 hrs
[13] = test system: U-87 MG; experiment: Induction of cell cycle arrest in human U-87 MG cells assessed as accumulation of cells at G2M phase at 0.02 uM by propidium Iodide staining based flow cytometry analysis (reference value: 9.73%); type: functional, U-87MG ATCC
[14] = test system: U-87 MG; experiment: Induction of apoptosis in human U-87 MG cells assessed as necrotic cells at 0.01 uM measured upto 24 hrs by Annexin V-FITC/PI staining based flow cytometry analysis (reference value: 0.62%); type: functional, U-87MG ATCC
[15] = test system: U-87 MG; experiment: Induction of apoptosis in human U-87 MG cells assessed as late apoptotic cells at 0.2 uM measured upto 24 hrs by Annexin V-FITC/PI staining based flow cytometry analysis (reference value: 0.54%); type: functional, U-87MG ATCC
[16] = Toxicity in BALB/c mouse implanted with human U-87 MG cells assessed as spleen damage at 5 mg/kg, ip administered once daily for 15 days by H and E staining based analysis; type: organism-based; conditions: in vivo, 360 h, time 15 day
[17] = test system: U-87 MG; experiment: Antiproliferative activity against human U-87 MG assessed as cell growth inhibition at 0.1 to 2 uM; type: functional, cell-based; conditions: U-87MG ATCC
[18] = Toxicity in BALB/c mouse implanted with human U-87 MG cells assessed as mortality at 5 to 25 mg/kg, ip administered once daily for 15 days by H and E staining based analysis; type: organism-based; conditions: in vivo, 360 h, dose 5-25 mg/kg, time 15 day
[19] = test system: U-87 MG; experiment: Induction of apoptosis in human U-87 MG cells assessed as late apoptotic cells at 2 uM measured upto 24 hrs by Annexin V-FITC/PI staining based flow cytometry analysis (reference value: 0.54%); type: functional, U-87MG ATCC
[20] = test system: U-87 MG; experiment: Induction of cell cycle arrest in human U-87 MG cells assessed as accumulation of cells at G0/G1 phase at 0.02 uM by propidium Iodide staining based flow cytometry analysis (reference value: 80.68%); type: functional, U-87MG ATCC
[21] = test system: U-87 MG; experiment: Induction of cell cycle arrest in human U-87 MG cells assessed as accumulation of cells at G2M phase at 0.01 uM by propidium Iodide staining based flow cytometry analysis (reference value: 9.73%); type: functional, U-87MG ATCC
[22] = test system: U-87 MG; experiment: Induction of cell cycle arrest in human U-87 MG cells assessed as accumulation of cells at G0/G1 phase at 2 uM by propidium Iodide staining based flow cytometry analysis (reference value: 80.68%); type: functional, U-87MG ATCC
[23] = test system: U-87 MG; experiment: Antitumor activity against human U-87 MG cells xenografted in BALB/c mouse assessed as inhibition of tumor growth at 25 mg/kg, ip administered once daily for 15 days; type: functional, U-87MG ATCC; conditions: 360 h, time 15 day, read-out: TGI
[24] = test system: U-87 MG; experiment: Induction of apoptosis in human U-87 MG cells assessed as early apoptotic cells at 0.2 uM measured upto 24 hrs by Annexin V-FITC/PI staining based flow cytometry analysis (reference value: 0.45%); type: functional, U-87MG ATCC
[25] = test system: U-87 MG; experiment: Induction of cell cycle arrest in human U-87 MG cells assessed as accumulation of cells at S phase at 0.2 uM by propidium Iodide staining based flow cytometry analysis (reference value: 9.59%); type: functional, U-87MG ATCC
[26] = test system: U-87 MG; experiment: Induction of apoptosis in human U-87 MG cells assessed as […] in Bcl-xL level at 0.05 to 0.8 uM incubated for 24 hrs by Western blot analysis; type: functional, cell-based; conditions: U-87MG ATCC, dose 0.05-0.8 µM
[27] = Toxicity in BALB/c mouse implanted with human U-87 MG cells assessed as body weight loss at 5 to 25 mg/kg, ip administered once daily for 15 days by H and E staining based analysis; type: organism-based; conditions: in vivo, 360 h, dose 5-25 mg/kg, time 15 day
[28] = Toxicity in BALB/c mouse implanted with human U-87 MG cells assessed as tubular epithelial degeneration in renal cortex at 5 mg/kg, ip administered once daily for 15 days by H and E staining based analysis; type: organism-based; conditions: in vivo, 360 h, time 15 day
[29] = Toxicity in BALB/c mouse implanted with human U-87 MG cells assessed as liver damage at 25 mg/kg, ip administered once daily for 15 days by H and E staining based analysis; type: organism-based; conditions: in vivo, 360 h, time 15 day
[30] = Cytotoxicity against human 2BS assessed as cell viability incubated for 48 hrs by MTT assay; type: toxicity, cell-based; conditions: 2BS cells
[31] = test system: U-87 MG; experiment: Antiproliferative activity against human U-87 MG assessed as inhibition of cell growth at 0.005 uM by clonogenic assay relative to control; type: functional, U-87MG ATCC
[32] = test system: U-87 MG; experiment: Induction of cell cycle arrest in human U-87 MG cells assessed as accumulation of cells at G0/G1 phase at 0.01 uM by propidium Iodide staining based flow cytometry analysis (reference value: 80.68%); type: functional, U-87MG ATCC
[33] = test system: U-87 MG; experiment: Induction of cell cycle arrest in human U-87 MG cells assessed as accumulation of cells at G2M phase at 0.2 uM by propidium Iodide staining based flow cytometry analysis (reference value: 9.73%); type: functional, U-87MG ATCC
[34] = test system: U-87 MG; experiment: Induction of DNA damage in human U-87 MG cells assessed as comet tail moment at 0.1 to 2 uM incubated for 2.5 to 3 hrs by comet assay; type: functional, U-87MG ATCC; conditions: time 2.5-3 hrs

CNC(=O)c1ccccc1Nc1nc(Nc2ccc(N3CCN(CCOC(=O)CCCc4ccc(N(CCCl)CCCl)cc4)CC3)cc2)ncc1C(F)(F)F
viability at 0.01 µM [1]: 74.8% | IC50 [2]: 15 nM | Activity [3]: Non-toxic | IC50 [4]: 0.815 nM | IC50 [5]: 20 nM | logD [6]: 6.06 | inhibition [7]: 100% | Activity [8]: 1.87% | selectivity ratio [9]: > 40 | viability at 2 µM [10]: 44.2% | Activity [11]: 1.81% | Activity [12]: Dose-dependent-effect; Ability To Induce Dna Damage Was Stronger Than That Of Tmx And Chlorambucil | Activity [13]: 20.9% | Activity [14]: 4.83% | Activity [15]: 5.65% | Activity [16]: Non-toxic | Activity [17]: Active | Activity [18]: Non-toxic | Activity [19]: 7.19% | Activity [20]: 62.68% | Activity [21]: 16.53% | Activity [22]: 38.9% | inhibition in vivo at 25 mg/kg [23]: 82.5% | Activity [24]: 28.3% | Activity [25]: 11.41% | Activity [26]: Active | Activity [27]: Non-toxic | Activity [28]: Non-toxic | Activity [29]: Non-toxic | IC50 at 48 h [30]: 11100 nM | inhibition at 0.005 µM [31]: 73% | Activity [32]: 69.64% | Activity [33]: 43.61% | Activity [34]: 11.6
